According to patent publication US20130053310A1 (NOVO NORDISK A/S, priority 2010, published 2013):
Peptide text beside a SMILES is read from it.

Assays:
glucagon receptor = target: T1, glucagon receptor (Homo sapiens, UniProt P47871); experiment: Assay (I) Glucagon activity: cAMP biosensor (ACTOne) FLIPR assay in HEK-293 cells with cloned glucagon receptor; type: cell-based
T1 construct: expressed in transfected cells
Method: The cells (14000 per well) were incubated (37° C., 5% CO2) overnight in 384-well plates. Next day the cells were loaded with a calcium responsive dye that only distributed into the cytoplasm. Probenecid, an inhibitor of the organic anion transporter, was added to prevent the dye from leaving the cell. A PDE inhibitor was added to prevent formatted cAMP from being degraded. […] End point data were collected after 6 minutes. An increase in intracellular cAMP was proportional to an increased in calcium concentrations in the cytoplasm. When calcium was bound the dry a fluorescence signal was generated. EC50-values were calculated in Prism5.

[1] = Assay (II) ThT fibrillation assay for physical stability; type: physicochemical; settings: ThT fibrillation assay, pH 4.0, 250 μM, 10 mM glycylglycine, 45 hours at 37° C., shaking 960 rpm
Source text: This has traditionally been measured by visual inspection of the sample. However, that kind of measurement is very subjective and depending on the observer. Therefore, the application of a small molecule indicator probe is much more advantageous.
Here, F is the ThT fluorescence at the time t. The constant t0 is the time needed to reach 50% of maximum fluorescence.
Few of those intermediates nucleate to form a template onto which further intermediates may assembly and the fibrillation proceeds. The lag-time corresponds to the interval in which the critical mass of nucleus is built up and the apparent rate constant is the rate with which the fibril itself is formed.
Samples were prepared freshly before each assay. […] The pH of the sample was adjusted to the desired value using appropriate amounts of concentrated NaOH and HCl. Thioflavin T was added to the samples from a stock solution in H2O to a final concentration of 1 μM.
The plate was sealed with Scotch Pad (Qiagen).
Each run was initiated by incubating the plate at the assay temperature for 10 min. The plate was measured every 20 minutes for a desired period of time. Between each measurement, the plate was shaken and heated as described.
The supernatant was filtered through a 0.22 μm filter and an aliquot was transferred to a HPLC vial.
The measurement points were saved in Microsoft Excel format for further processing and curve drawing and fitting was performed using GraphPad Prism.
The data set may be fitted to Eq. (1).

T1 sequence (P47871 26-477): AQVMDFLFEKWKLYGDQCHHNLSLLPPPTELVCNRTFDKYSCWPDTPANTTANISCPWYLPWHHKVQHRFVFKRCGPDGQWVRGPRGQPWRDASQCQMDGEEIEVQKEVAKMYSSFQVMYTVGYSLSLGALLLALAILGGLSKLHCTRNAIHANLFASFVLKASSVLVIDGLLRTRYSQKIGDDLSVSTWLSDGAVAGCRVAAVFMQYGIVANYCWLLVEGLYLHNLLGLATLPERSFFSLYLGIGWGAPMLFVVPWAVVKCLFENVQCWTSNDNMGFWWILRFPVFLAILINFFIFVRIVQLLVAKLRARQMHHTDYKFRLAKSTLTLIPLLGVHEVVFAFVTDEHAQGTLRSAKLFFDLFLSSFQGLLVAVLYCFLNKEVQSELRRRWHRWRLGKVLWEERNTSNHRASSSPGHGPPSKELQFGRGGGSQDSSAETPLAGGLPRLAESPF

CC(C)C[C@H](NC(=O)[C@H](Cc1ccc(O)cc1)NC(=O)[C@H](CCCCN)NC(=O)[C@H](CO)NC(=O)[C@H](Cc1ccc(O)cc1)NC(=O)[C@H](CC(=O)O)NC(=O)[C@H](CO)NC(=O)[C@@H](NC(=O)[C@H](Cc1ccccc1)NC(=O)[C@@H](NC(=O)CNC(=O)[C@H](CCC(N)=O)NC(=O)[C@H](CO)NC(=O)[C@@H](N)Cc1c[nH]cn1)[C@@H](C)O)[C@@H](C)O)C(=O)N[C@@H](CC(=O)O)C(=O)N[C@@H](CO)C(=O)N[C@@H](CCCNC(=N)N)C(=O)N[C@@H](CCCNC(=N)N)C(=O)N[C@@H](C)C(=O)N[C@@H](CCC(N)=O)C(=O)N[C@@H](CC(=O)O)C(=O)N[C@@H](Cc1ccccc1)C(=O)N[C@H](C(=O)N[C@@H](CCC(N)=O)C(=O)N[C@@H](CCCNC(=N)N)C(=O)N[C@@H](CC(C)C)C(=O)N[C@@H](CC(C)C)C(=O)N[C@@H](CC(N)=O)C(=O)N[C@H](C(=O)O)[C@@H](C)O)C(C)C [Example 5, [Arg^25, Leu^27]-Glucagon]
EC50 (glucagon receptor): 57 pM
Assay (II) (pH 4.0) Lag time (hours) [1]: > 45 hours

CC(C)C[C@H](NC(=O)[C@H](Cc1ccc(O)cc1)NC(=O)[C@H](CCCCN)NC(=O)[C@H](CO)NC(=O)[C@H](Cc1ccc(O)cc1)NC(=O)[C@H](CC(=O)O)NC(=O)[C@H](CO)NC(=O)[C@@H](NC(=O)[C@H](Cc1ccccc1)NC(=O)[C@@H](NC(=O)CNC(=O)[C@H](CCC(N)=O)NC(=O)[C@H](CO)NC(=O)[C@@H](N)Cc1c[nH]cn1)[C@@H](C)O)[C@@H](C)O)C(=O)N[C@@H](CCC(=O)O)C(=O)N[C@@H](CO)C(=O)N[C@@H](CCCNC(=N)N)C(=O)N[C@@H](CCCNC(=N)N)C(=O)N[C@@H](C)C(=O)N[C@@H](CCC(N)=O)C(=O)N[C@@H](CCC(=O)O)C(=O)N[C@@H](Cc1ccccc1)C(=O)N[C@H](C(=O)N[C@@H](CCC(N)=O)C(=O)N[C@@H](CCCNC(=N)N)C(=O)N[C@@H](CC(C)C)C(=O)N[C@@H](CC(C)C)C(=O)N[C@@H](CC(N)=O)C(=O)N[C@H](C(=O)O)[C@@H](C)O)C(C)C [Example 10, [Glu^15, Glu^21, Arg^25, Leu^27]-Glucagon] (H-HSQGTFTSDYSKYLESRRAQEFVQRLLNT-OH)
EC50 (glucagon receptor): 266 pM
Assay (II) (pH 4.0) Lag time (hours) [1]: > 45 hours

CC(C)C[C@H](NC(=O)[C@H](Cc1ccc(O)cc1)NC(=O)[C@H](CCCCN)NC(=O)[C@H](CO)NC(=O)[C@H](Cc1ccc(O)cc1)NC(=O)[C@H](CC(=O)O)NC(=O)[C@H](CO)NC(=O)[C@@H](NC(=O)[C@H](Cc1ccccc1)NC(=O)[C@@H](NC(=O)CNC(=O)[C@H](CCC(N)=O)NC(=O)[C@H](CO)NC(=O)[C@@H](N)Cc1c[nH]cn1)[C@@H](C)O)[C@@H](C)O)C(=O)N[C@@H](CC(=O)O)C(=O)N[C@@H](CO)C(=O)N[C@@H](CCCNC(=N)N)C(=O)N[C@@H](CCCNC(=N)N)C(=O)N[C@@H](C)C(=O)N[C@@H](CCC(N)=O)C(=O)N[C@@H](CC(=O)O)C(=O)N[C@@H](Cc1ccccc1)C(=O)N[C@H](C(=O)N[C@@H](CCC(N)=O)C(=O)N[C@@H](CCCNC(=N)N)C(=O)N[C@@H](CC(C)C)C(=O)N[C@@H](CC(C)C)C(=O)N[C@@H](CCC(=O)O)C(=O)N[C@H](C(=O)O)[C@@H](C)O)C(C)C [Example 11, [Arg^25, Leu^27, Glu^28]-Glucagon]
EC50 (glucagon receptor): 37 pM
Assay (II) (pH 4.0) Lag time (hours) [1]: > 45 hours

CC(C)C[C@H](NC(=O)[C@H](Cc1ccc(O)cc1)NC(=O)[C@H](CCCCN)NC(=O)[C@H](CO)NC(=O)[C@H](Cc1ccc(O)cc1)NC(=O)[C@H](CC(=O)O)NC(=O)[C@H](CO)NC(=O)[C@@H](NC(=O)[C@H](Cc1ccccc1)NC(=O)[C@@H](NC(=O)CNC(=O)[C@H](CCC(N)=O)NC(=O)[C@H](CO)NC(=O)[C@@H](N)Cc1c[nH]cn1)[C@@H](C)O)[C@@H](C)O)C(=O)N[C@@H](CC(=O)O)C(=O)N[C@@H](CO)C(=O)N[C@@H](CCCNC(=N)N)C(=O)N[C@@H](CCCNC(=N)N)C(=O)N[C@@H](C)C(=O)N[C@@H](CCC(N)=O)C(=O)N[C@@H](CC(=O)O)C(=O)N[C@@H](Cc1ccccc1)C(=O)N[C@H](C(=O)N[C@@H](CCC(N)=O)C(=O)N[C@@H](Cc1ccc(OP(=O)(O)O)cc1)C(=O)N[C@@H](CC(C)C)C(=O)N[C@@H](CC(C)C)C(=O)N[C@@H](CC(N)=O)C(=O)N[C@H](C(=O)O)[C@@H](C)O)C(C)C [Example 2, [(O-phosphono)Tyr^25,Leu^27]Glucagon]
EC50 (glucagon receptor): 17 pM
